Results from ChEMBL document CHEMBL4765411, “Discovery of 2-(2-aminobenzo[d]thiazol-6-yl) benzo[d]oxazol-5-amine derivatives that regulated HPV relevant cellular pathway and prevented cervical cancer from abnormal proliferation” (Eur J Med Chem, 2020).
Calls of active or inactive are those of the source. The rule behind the calls is not given here.

Tests used:
[1] = Toxicity in BALB/c nude mouse xenografted with human A375 cells assessed as effect on body weight at 50 mg/kg, ig administered for alternative days; type: organism-based; conditions: in vivo, po
HeLa [2] = test: Induction of apoptosis in human HeLa cells assessed as late apoptotic cells at 1 uM after 24 hrs by Annexin V FITC/propidium iodide staining based flow cytometric analysis (reference value: 0.41%); type: functional
HeLa [3] = test: Induction of apoptosis in human HeLa cells assessed as viable cells at 1 uM after 24 hrs by Annexin V FITC/propidium iodide staining based flow cytometric analysis (reference value: 97.97%); type: functional; conditions: read-out: Activity
[4] = Antiproliferative activity against human C4-1 cells assessed as reduction in cell viability after 72 hrs by SRB assay; type: functional, cell-based; conditions: C4-1, 72 h
[5] = Toxicity in BALB/c nude mouse xenografted with human SKOV-3 cells assessed as effect on body weight at 50 mg/kg, ig administered for alternative days; type: organism-based; conditions: in vivo, po
HeLa [6] = test: Induction of apoptosis in human HeLa cells assessed as early apoptotic cells at 1 uM after 24 hrs by Annexin V FITC/propidium iodide staining based flow cytometric analysis (reference value: 0.6%); type: functional
HeLa [7] = test: Induction of apoptosis in human HeLa cells assessed as necrotic cells at 1 uM after 24 hrs by Annexin V FITC/propidium iodide staining based flow cytometric analysis (reference value: 1.02%); type: functional
HeLa [8] = test: Antiproliferative activity against human HeLa cells assessed as growth inhibition at 20 uM viability after 72 hrs by SRB assay relative to control; type: functional; conditions: read-out: GI
A-375 = test: Antitumour activity against human A375 cells xenografted in BALB/c nude mouse assessed as reduction in tumour growth at 50 mg/kg, ig administered for alternative days; type: functional, organism-based
HEK293 = test: Cytotoxicity against human HEK293 cells assessed as reduction in cell viability after 72 hrs by SRB assay; type: cell-based; conditions: HEK293, 72 h
C-33-A = test: Antiproliferative activity against human C-33-A cells assessed as reduction in cell viability after 72 hrs by SRB assay; type: functional, cell-based
human papillomavirus 18 [9] = test: Down regulation of viral protein E6 in HPV18 infected in human HeLa cells after 24 hrs by Western blot analysis; type: functional, cell-based; conditions: dose 0.5-10 µM
A-431 = test: Antitumour activity against human A431 cells xenografted in BALB/c nude mouse assessed as reduction in tumour growth at 50 mg/kg, ig administered for alternative days; type: functional, organism-based
MCF7 = test: Antitumour activity against human MCF7 cells xenografted in BALB/c nude mouse assessed as reduction in tumour growth at 50 mg/kg, ig administered for alternative days; type: functional, organism-based
human papillomavirus 18 [10] = test: Down regulation of viral protein E7 in HPV18 infected in human HeLa cells after 24 hrs by Western blot analysis; type: functional, cell-based; conditions: dose 0.5-10 µM
[11] = Toxicity in BALB/c nude mouse xenografted with human MCF7 cells assessed as effect on body weight at 50 mg/kg, ig administered for alternative days; type: organism-based; conditions: in vivo, po
human papillomavirus 18 [12] = test: Down regulation of viral protein E7 in HPV18 infected in human C4-1 cells after 24 hrs by Western blot analysis; type: functional, cell-based; conditions: dose 0.5-10 µM
SK-OV-3 = test: Antitumour activity against human SKOV-3 cells xenografted in BALB/c nude mouse assessed as reduction in tumour growth at 50 mg/kg, ig administered for alternative days; type: functional, organism-based
HeLa [13] = test: Down regulation of viral protein E7 in HPV18 infected in human HeLa cells at 5 uM after 24 hrs in presence of MG132 by Western blot analysis; type: functional, cell-based
HeLa [14] = test: Antiproliferative activity against human HeLa cells assessed as growth inhibition at 1 uM viability after 72 hrs by SRB assay relative to control; type: functional; conditions: read-out: GI
HeLa [15] = test: Antitumour activity against human HeLa cells xenografted in BALB/c nude mouse assessed as reduction in tumour growth at 50 mg/kg, ig administered for alternative days; type: functional, organism-based
[16] = Toxicity in BALB/c nude mouse xenografted with human A431 cells assessed as effect on body weight at 50 mg/kg, ig administered for alternative days; type: organism-based; conditions: in vivo, po
[17] = target: T1, Protein E7 (human papillomavirus 18) (UniProt P06788); test: Inhibition of viral protein E7 in HPV18 infected in human HeLa cells assessed as reduction in E2F-1 protein […] after 24 hrs by Western blot analysis; type: cell-based; conditions: dose 0.5-10 µM
T1 sequence (whole entry): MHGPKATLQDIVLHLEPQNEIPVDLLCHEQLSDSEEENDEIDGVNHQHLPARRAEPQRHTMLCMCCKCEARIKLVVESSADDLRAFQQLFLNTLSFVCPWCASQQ

[18] = target: T1, Protein E7 (human papillomavirus 18); test: Inhibition of viral protein E7 in HPV18 infected in human HeLa cells assessed as reduction in DNMT1 protein […] after 24 hrs by Western blot analysis; type: cell-based; conditions: dose 0.5-10 µM
HeLa [19] = test: Antiproliferative activity against human HeLa cells assessed as reduction in cell viability after 72 hrs by SRB assay; type: functional, cell-based
[20] = target: T1, Protein E7 (human papillomavirus 18); test: Inhibition of viral protein E7 in HPV18 infected in human HeLa cells assessed as reduction in phosphorylation of Rb at S608 residue after 24 hrs by Western blot analysis; type: cell-based; conditions: dose 0.5-10 µM
human papillomavirus 18 [21] = test: Down regulation of viral protein E6 in HPV18 infected in human C4-1 cells after 24 hrs by Western blot analysis; type: functional, cell-based; conditions: dose 0.5-10 µM
SiHa = test: Antiproliferative activity against human SiHa cells assessed as reduction in cell viability after 72 hrs by SRB assay; type: functional, cell-based
[22] = Toxicity in BALB/c nude mouse xenografted with human HeLa cells assessed as effect on body weight at 50 mg/kg, ig administered for alternative days; type: organism-based; conditions: in vivo, po
HeLa [23] = test: Induction of cell cycle arrest in human HeLa cells assessed as decrease in accumulation in S phase at 1 uM after 24 hrs by RNAse/propidium iodide staining based flow cytometric analysis; type: functional
[24] = target: T1, Protein E7 (human papillomavirus 18); test: Inhibition of viral protein E7 in HPV18 infected in human HeLa cells assessed as reduction in phosphorylation of Rb at S780 residue after 24 hrs by Western blot analysis; type: cell-based; conditions: dose 0.5-10 µM

**Q.** For `Nc1ccc2oc(-c3ccc4nc(N)sc4c3)nc2c1`, which Activity [1] is on record?
**A.** Its Activity is “Non-Toxic”.

**Q.** And the Activity (HeLa [2])?
**A.** The Activity was 3.05%.

**Q.** And the viability at 1 µM (HeLa [3])?
**A.** The viability at 1 µM was 85.8%.

**Q.** And the IC50 [4]?
**A.** The IC50 was 0.44 µM.

**Q.** What about the Activity [5] of the same molecule?
**A.** Its Activity is “Non-Toxic”.

**Q.** And the Activity (HeLa [6])?
**A.** The Activity was 8.77%.

**Q.** And the Activity (HeLa [7])?
**A.** The Activity was 2.33%.

**Q.** What about the inhibition of growth at 20 µM (HeLa [8]) of the same molecule?
**A.** Its inhibition of growth at 20 µM is 81.1%.

**Q.** What about the Activity (A-375) of the same molecule?
**A.** The Activity was “inactive”.

**Q.** What about the IC50 (HEK293) of the same molecule?
**A.** Its IC50 is over 20 µM.

**Q.** And the IC50 (C-33-A)?
**A.** The IC50 was 11.9 µM.

**Q.** What about the Activity (human papillomavirus 18 [9]) of the same molecule?
**A.** Its Activity is “Dose-dependent effect”.

**Q.** And the Activity (A-431)?
**A.** The Activity was “inactive”.

**Q.** What about the Activity (MCF7) of the same molecule?
**A.** Its Activity is “inactive”.

**Q.** And the Activity (human papillomavirus 18 [10])?
**A.** Its Activity is “Dose-dependent effect”.

**Q.** What about the Activity [11] of the same molecule?
**A.** Its Activity is “Non-Toxic”.

**Q.** And the Activity (human papillomavirus 18 [12])?
**A.** Its Activity is “Dose-dependent effect”.

**Q.** And the Activity (SK-OV-3)?
**A.** The Activity was “inactive”.

**Q.** What about the Activity (HeLa [13]) of the same molecule?
**A.** The Activity was “inactive”.

**Q.** What about the inhibition of growth at 1 µM (HeLa [14]) of the same molecule?
**A.** Its inhibition of growth at 1 µM is 81.7%.

**Q.** What about the Activity (HeLa [15]) of the same molecule?
**A.** Its Activity is “Active”.

**Q.** And the Activity [16]?
**A.** The Activity was “Non-Toxic”.

**Q.** And the inhibition [17]?
**A.** The inhibition was “Dose-dependent effect”.

**Q.** And the inhibition [18]?
**A.** The inhibition was “Dose-dependent effect”.

**Q.** What about the IC50 (HeLa [19]) of the same molecule?
**A.** Its IC50 is 0.38 µM.

**Q.** And the inhibition [20]?
**A.** Its inhibition is “Dose-dependent effect”.

**Q.** And the Activity (human papillomavirus 18 [21])?
**A.** Its Activity is “Dose-dependent effect”.

**Q.** What about the IC50 (SiHa) of the same molecule?
**A.** Its IC50 is 11.5 µM.

**Q.** And the Activity [22]?
**A.** Its Activity is “Non-Toxic”.

**Q.** And the Activity (HeLa [23])?
**A.** Its Activity is “Active”.

**Q.** And the inhibition [24]?
**A.** The inhibition was “Dose-dependent effect”.
